Legend:
[1] = cited from earlier work
Rhyzopertha dominica = assay: whole plant or invertebrate; settings: Rhyzopertha dominica, read-out: Mortality (%) (Mean ± SD)
Description: (§1) Cryptolestes sp. was reared on wheat feed. S. oryzae, Cryptolestes sp. and T. castaneum cultures were maintained at 25±1° C. and 70% RH whereas R. dominica cultures were maintained at 30±1° C. and 70% RH. From the established cultures, 2-week-old adults were taken and counted into 10 cm×2.3 cm size test tubes at 50 per replicate. The mouth of the tube was closed with a cloth piece held by small rubber ring. The insects were exposed to a range of doses (10 to 100 mg/litre) of esters for 24 hours in 0.85-liter desicators at the laboratory temperature of 26±2° C. Pure grade esters including allyl acetate, butyl acetate, ethyl acetoacetate, isopropyl acetate and propyl acetate were procured from Merck India Ltd. In each desiccator a 9 cm diameter Whatman No. 1 filter circle was placed; the filter circle acted as evaporating surface for the injected liquids (esters). Required quantity of the ester was drawn from the bottles using 10, 25 or 50 micro litre liquid syringe. There were 6 replicates for each dose with equal number of replicates for untreated control. The exposure period in all cases was 24 hours. […] Insect mortality was assessed after 14 days. Corrected mortality was arrived at based on Abbott's formula (1925).

Tribolium castaneum = assay: whole plant or invertebrate; settings: Tribolium castaneum, read-out: Mortality (%) (Mean ± SD)
Description: as §1

Sitophilus oryzae = assay: whole plant or invertebrate; settings: Sitophilus oryzae, read-out: Mortality (%) (Mean ± SD)
Description: as §1

human beings = settings: cited from earlier work

| SMILES | vapour pressure ([1]; at 25° C.) | mortality at 10 µg/mL (Rhyzopertha dominica) | mortality at 20 µg/mL (Rhyzopertha dominica) | mortality at 30 µg/mL (Rhyzopertha dominica) | mortality at 50 µg/mL (Rhyzopertha dominica) | mortality at 100 µg/mL (Rhyzopertha dominica) | mortality at 10 µg/mL (Tribolium castaneum) | mortality at 20 µg/mL (Tribolium castaneum) | mortality at 30 µg/mL (Tribolium castaneum) | mortality at 50 µg/mL (Tribolium castaneum) | mortality at 100 µg/mL (Tribolium castaneum) | mortality at 10 µg/mL (Sitophilus oryzae) | mortality at 20 µg/mL (Sitophilus oryzae) | mortality at 30 µg/mL (Sitophilus oryzae) | mortality at 50 µg/mL (Sitophilus oryzae) | mortality at 100 µg/mL (Sitophilus oryzae) | toxicity to human beings (human beings) | Solubility in water [1] |
| --- | --- | --- | --- | --- | --- | --- | --- | --- | --- | --- | --- | --- | --- | --- | --- | --- | --- | --- |
| O=S(=O)(F)F [sulfuryl fluoride, reference compound] | 13,442 mm of Hg | – | – | – | – | – | – | – | – | – | – | – | – | – | – | – | – | – |
| CCCCOC(C)=O [Butyl acetate, butyl acetate] | – | 1.6 ± 3.5% | 0% | 0.2 ± 0.7% | 20.9 ± 26.8% | 100% | 2 ± 2.6% | 2.1 ± 1.1% | 0.6 ± 1.1% | 13.9 ± 0.8% | 96.2 ± 0.8% | 8.3 ± 12.3% | 1.7 ± 2.4% | 3.2 ± 4.5% | 67.3 ± 7.7% | 100% | – | – |
| CCOC(=O)CC(C)=O [Ethyl acetoacetate, ethyl acetoacetate] | – | 0% | 0% | 5.7 ± 10.4% | 8.6 ± 17.1% | 0.4 ± 0.9% | 0.6 ± 2.6% | 0.8 ± 1.1% | 0.3 ± 1.1% | 0.7 ± 0.8% | 1.3 ± 0.8% | 3.1 ± 6.9% | 4.7 ± 7.1% | 5.1 ± 5.7% | 6.5 ± 5.5% | 15.8 ± 14% | – | – |
| N#CC#N [cyanogen, reference compound] | – | – | – | – | – | – | – | – | – | – | – | – | – | – | – | – | highly toxic | highly water-soluble |
| CC(=O)OC(C)C [Isopropyl acetate, isopropyl acetate] | – | 4.4 ± 6.9% | 8.9 ± 10.7% | 6.1 ± 6.7% | 39.2 ± 8.2% | 100% | 0.3 ± 0.6% | 1.3 ± 1.7% | 32.7 ± 44.1% | 66.5 ± 27.7% | 100% | 5.5 ± 6.9% | 2.3 ± 5.6% | 3.7 ± 7.56% | 47.1 ± 31.2% | 100% | – | – |
| CCCOC(C)=O [Propyl acetate, propyl acetate] | – | 2 ± 4% | 7.3 ± 10% | 5.3 ± 10.6% | 65.4 ± 40% | 100% | 0.9% | 0.9% | 12.6 ± 21.2% | 83.2 ± 26.3% | 100% | 2.4 ± 3.8% | 0.5 ± 1.3% | 14.2 ± 8.1% | 74.3 ± 20.2% | 100% | – | – |

Reference: patent publication US20040191287A1, “Fumigation process for stored food grains” (priority 2003, published 2004)
